Experimental data published in US20110190280A1, “Thiazole And Oxazole Kinase Inhibitors” (priority 2007, published 2011).
Where a name gives a salt, the structure may show the parent alone.

Columns and labels:
SK-MEL-28 tumor cells = assay: Cell growth inhibition assay (CellTiter-Glo), SK-MEL-28; conditions: Homo sapiens, SK-MEL-28, 72 h, read-out: Activity in SK-MEL-28 Tumor Cells;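 note: luminescent total ATP as a proxy for cell number, threefold serial dilutions at 0.2% DMSO, percent growth inhibition versus DMSO vehicle control wells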
HT-29 tumor cells = assay: Cell growth inhibition assay (CellTiter-Glo), HT-29; conditions: Homo sapiens, HT-29, 72 h, read-out: Activity in HT-29 Tumor Cells;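 note: ATP content read by luminescence as proxy for cell number, growth inhibition versus DMSO vehicle wells, 0.2% DMSO final, nine serial threefold compound dilutions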
B-Raf = B-Raf (Homo sapiens, UniProt P15056); assay: B-Raf Accelerated MEK ATPase assay (BRAMA); type: biochemical; conditions: BRAMA enzyme assay; class by pIC50; read-out: B-Raf Activity
B-Raf, sequence (P15056 whole entry): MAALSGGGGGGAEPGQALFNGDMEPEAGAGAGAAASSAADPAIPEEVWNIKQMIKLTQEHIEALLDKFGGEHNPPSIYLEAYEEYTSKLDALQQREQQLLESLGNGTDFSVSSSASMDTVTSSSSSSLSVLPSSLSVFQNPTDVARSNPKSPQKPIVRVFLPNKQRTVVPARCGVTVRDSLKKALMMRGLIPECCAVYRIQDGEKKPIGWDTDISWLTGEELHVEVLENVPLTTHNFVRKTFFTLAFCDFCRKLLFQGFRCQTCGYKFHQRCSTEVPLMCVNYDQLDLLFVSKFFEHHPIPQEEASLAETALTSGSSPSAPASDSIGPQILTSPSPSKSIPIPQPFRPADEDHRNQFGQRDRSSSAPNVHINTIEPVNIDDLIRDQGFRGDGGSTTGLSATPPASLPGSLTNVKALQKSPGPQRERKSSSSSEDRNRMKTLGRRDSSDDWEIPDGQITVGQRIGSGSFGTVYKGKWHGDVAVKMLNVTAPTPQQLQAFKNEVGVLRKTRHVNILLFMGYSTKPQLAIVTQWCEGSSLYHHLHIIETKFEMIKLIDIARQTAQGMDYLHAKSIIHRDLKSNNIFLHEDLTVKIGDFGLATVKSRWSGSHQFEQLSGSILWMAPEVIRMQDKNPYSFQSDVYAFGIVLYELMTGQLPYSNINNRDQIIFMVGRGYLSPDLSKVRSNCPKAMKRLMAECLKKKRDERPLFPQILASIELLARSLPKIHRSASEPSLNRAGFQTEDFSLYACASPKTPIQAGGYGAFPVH
Procedure: Compounds of the present invention were tested for B-Raf […] inhibitory activity in a B-Raf Accelerated MEK ATPase assay (BRAMA). The BRAMA assay is a high sensitivity assay which measures an intrinsic MEK-mediated ATP hydrolysis uncoupled from downstream ERK phosphorylation by coupling the formation of ADP to NADH oxidation through the enzymes pyruvate kinase and lactate dehydrogenase. When ADP production is initiated by addition of catalytic amounts of an activated RAF enzyme and non-phosphorylated MEK, one observes robust ADP production concomitant with RAF-mediated phosphorylation of MEK. Specific details of the assay are disclosed in: C. Rominger, M. Schaber, E. May. Assay for B-Raf Activity Based on Intrinsic MEK ATPase Activity.

A375P tumor cells = assay: Cell growth inhibition assay (CellTiter-Glo), A375P; conditions: Homo sapiens, 72 h, read-out: Activity in A375P Tumor Cells;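 note: total ATP luminescence used as proxy for cell number, serial threefold compound dilutions at 0.2% DMSO, growth inhibition expressed versus DMSO vehicle-treated wells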
Colo205 tumor cells = assay: Cell growth inhibition assay (CellTiter-Glo), Colo205; conditions: Homo sapiens, COLO 205, 72 h, read-out: Activity in Colo205 Tumor Cells;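 note: growth measured via total ATP luminescence (CellTiter-Glo) as a proxy for cell number, inhibition expressed against DMSO-treated control wells, 3-day exposure at 0.2% final DMSO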
SK-MEL-3 tumor cells = assay: Cell growth inhibition assay (CellTiter-Glo), SK-MEL-3; conditions: Homo sapiens, SK-MEL3, 72 h, read-out: Activity in SK-MEL-3 Tumor Cells;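 note: human melanoma cells grown with compound for 3 days in 0.2% DMSO, total ATP read by luminescence as proxy for cell number, growth inhibition versus DMSO-treated wells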

Structure (SMILES) | IC50 (SK-MEL-28 tumor cells) | IC50 (HT-29 tumor cells) | IC50 (B-Raf) | IC50 (A375P tumor cells) | IC50 (Colo205 tumor cells) | IC50 (SK-MEL-3 tumor cells)
CCNc1nc(-c2cc(OC)cc(OC)c2)c(-c2ccnc(Nc3ccc(N4CCS(=O)(=O)CC4)c(F)c3)n2)s1 [Example 9, 4-[4-[3,5-Bis(methyloxy)phenyl]-2-(ethylamino)-1,3-thiazol-5-yl]-N-[4-(1,1-dioxido-4-thiomorpholinyl)-3-fluorophenyl]-2-pyrimidinamine] | < 500 nM | < 500 nM | < 100 nM | 500 to 5000 nM | 500 to 5000 nM | < 500 nM
CCNc1nc(-c2cc(OC)cc(OC)c2)c(-c2ccnc(Nc3ccc(N4CCN(C)CC4)c(Cl)c3)n2)s1 [Example 11, 4-[4-[3,5-Bis(methyloxy)phenyl]-2-(ethylamino)-1,3-thiazol-5-yl]-N-[3-chloro-4-(4-methyl-1-piperazinyl)phenyl]-2-pyrimidinamine] | < 500 nM | < 500 nM | < 100 nM | < 500 nM | < 500 nM | < 500 nM
CCNc1nc(-c2cc(OC)cc(OC)c2)c(-c2ccnc(Nc3ccc(OC4CCN(C(C)=O)CC4)c(F)c3)n2)s1 [Example 12, N-{4-[(1-Acetyl-4-piperidinyl)oxy]-3-fluorophenyl}-4-[4-[3,5-bis(methyloxy)phenyl]-2-(ethylamino)-1,3-thiazol-5-yl]-2-pyrimidinamine] | 500 to 5000 nM | < 500 nM | < 100 nM | < 500 nM | < 500 nM | < 500 nM
CCNc1nc(-c2cc(OC)cc(OC)c2)c(-c2ccnc(Nc3ccc(OCCN4CCOCC4)c(F)c3)n2)s1 [Example 13, 4-[4-[3,5-Bis(methyloxy)phenyl]-2-(ethylamino)-1,3-thiazol-5-yl]-N-(3-fluoro-4-{[2-(4-morpholinyl)ethyl]oxy}phenyl)-2-pyrimidinamine] | 500 to 5000 nM | < 500 nM | < 100 nM | 500 to 5000 nM | 500 to 5000 nM | < 500 nM
CCNc1nc(-c2cc(C)cc(OC)c2)c(-c2ccnc(Nc3ccc4c(c3)CS(=O)(=O)C4)n2)s1 [Example 14, N-(2,2-Dioxido-1,3-dihydro-2-benzothien-5-yl)-4-{2-(ethylamino)-4-[3-methyl-5-(methyloxy)phenyl]-1,3-thiazol-5-yl}-2-pyrimidinamine] | 500 to 5000 nM | < 500 nM | < 100 nM | < 500 nM | < 500 nM | < 500 nM
COc1cc(OC)cc(-c2nc(NC3CC3)sc2-c2ccnc(Nc3ccc4c(c3)CN(C)CC4)n2)c1 [Example 15, N-{4-[4-[3,5-Bis(methyloxy)phenyl]-2-(cyclopropylamino)-1,3-thiazol-5-yl]-2-pyrimidinyl}-2-methyl-1,2,3,4-tetrahydro-7-isoquinolinamine] | 500 to 5000 nM | 500 to 5000 nM | < 100 nM | 500 to 5000 nM | 500 to 5000 nM | < 500 nM
COc1cc(OC)cc(-c2nc(NC3CC3)sc2-c2ccnc(Nc3ccc(OCCN4CCCC4=O)c(F)c3)n2)c1 [Example 16, 1-(2-{[4-({4-[4-[3,5-Bis(methyloxy)phenyl]-2-(cyclopropylamino)-1,3-thiazol-5-yl]-2-pyrimidinyl}amino)-2-fluorophenyl]oxy}ethyl)-2-pyrrolidinone trifluoroacetate] | 500 to 5000 nM | < 500 nM | < 100 nM | 500 to 5000 nM | 500 to 5000 nM | < 500 nM
COc1cc(OC)cc(-c2nc(NC3CC3)sc2-c2ccnc(Nc3ccc(OC4CCN(CCS(C)(=O)=O)CC4)c(F)c3)n2)c1 [Example 17, 4-[4-[3,5-Bis(methyloxy)phenyl]-2-(cyclopropylamino)-1,3-thiazol-5-yl]-N-[3-fluoro-4-({1-[2-(methylsulfonyl)ethyl]-4-piperidinyl}oxy)phenyl]-2-pyrimidinamine] | < 500 nM | < 500 nM | < 100 nM | < 500 nM | < 500 nM | < 500 nM
COCCN1CCN(c2ccc(Nc3nccc(-c4sc(NC5CC5)nc4-c4cc(OC)cc(OC)c4)n3)cn2)CC1 [Example 18, 4-[4-[3,5-Bis(methyloxy)phenyl]-2-(cyclopropylamino)-1,3-thiazol-5-yl]-N-(6-{4-[2-(methyloxy)ethyl]-1-piperazinyl}-3-pyridinyl)-2-pyrimidinamine] | < 500 nM | < 500 nM | < 100 nM | < 500 nM | < 500 nM | < 500 nM
